Test system: T1, Acetes chinensis PPO (polyphenol oxidase)
T1 construct: native enzyme purified from fresh shrimp (ammonium sulphate, DEAE, Phenyl-Sepharose HP); single SDS-PAGE band about 75 kDa
Assay: absorbance at […] nm, Lineweaver-Burk
Assay type: biochemical
Conditions: 0.05 mol/L phosphate buffer pH 7.2, 40 °C, 40 min; Figure 2 caption names pyrocatechol, text names L-Dopa

SMILES: N[C@@H](Cc1ccc(O)c(O)c1)C(=O)O [L-dopa]
- Km: 846 µM

Reference: PMC8709206, “Study on Purification and Characterization of Polyphenol Oxidase from Acetes chinensis” (Molecules, 2021)
